The source of these data is ChEMBL document CHEMBL1130801, “PF1022A--a novel anthelmintic cyclooctadepsipeptide. Modification and exchange of the N-methyl leucine residues” (Bioorg Med Chem Lett, 1998).

Series [1] can be described thus: Partition coefficient in n-octanol/ water system at pH= 7.0. Format: physicochemical.
Series [2] relates to Ovis aries. In words: Anthelmintic activity against Haemonchus contortus nematode in sheep was determined as a function of >/= 90% egg reduction after p.o. administration. Format: functional.
In series [3] the test system is Ovis aries. In words: Anthelmintic activity against Haemonchus contortus nematode in sheep was determined as a function of >/= 90% egg reduction after i.v. administration. Format: functional.
Series [4] deals with Ovis aries. In words: Anthelmintic activity against Haemonchus contortus nematode in sheep was determined as a function of </=50% egg reduction after p.o. administration. Format: functional.
For series [5], the system named is Ovis aries. Kind of series: Anthelmintic activity against Haemonchus contortus nematode in sheep was determined as a function of 50-75% egg reduction after p.o. administration. Format: functional.
Series [6] deals with Ovis aries. In words: Anthelmintic activity against Haemonchus contortus nematode in sheep was determined as a function of </= 50% egg reduction after i.v. administration. Format: functional.
The subject of series [7] is Ovis aries. In words: Anthelmintic activity against Haemonchus contortus nematode in sheep was determined as a function of 75-90% egg reduction after p.o. administration. Format: functional.
Series [8] relates to Ovis aries. In words: Anthelmintic activity against Haemonchus contortus nematode in sheep was determined as a function of 75 to >/= 90% egg reduction after p.o. administration. Format: functional.

In series [1], `CC(C)C[C@H]1C(=O)O[C@H](Cc2ccccc2)C(=O)N(C)[C@@H](CC(C)C)C(=O)O[C@H](C)C(=O)N(C)[C@@H](CC(C)C)C(=O)O[C@H](Cc2ccccc2)C(=O)N(C)[C@@H](CC(C)C)C(=O)OC(C)C(=O)N1C` (single isomer, unassigned) registered a logD of 5.9. The Activity with Ovis aries [2] and in the series on Ovis aries [3] was 0.1 throughout.
For `CCC[C@H]1C(=O)O[C@H](Cc2ccccc2)C(=O)N(C)[C@@H](CC(C)C)C(=O)O[C@H](C)C(=O)N(C)[C@@H](CC(C)C)C(=O)O[C@H](Cc2ccccc2)C(=O)N(C)[C@@H](CCC)C(=O)O[C@@H](C)C(=O)N1C`, the logD in series [1] came to 5.5. Moreover, the Activity turned out to be 0.5 in the series on Ovis aries [3] and 0.1 in the series with Ovis aries [4].
Regarding `CC(C)[C@H]1C(=O)O[C@H](Cc2ccccc2)C(=O)N(C)[C@@H](C(C)C)C(=O)O[C@H](C)C(=O)N(C)[C@@H](C(C)C)C(=O)O[C@H](Cc2ccccc2)C(=O)N(C)[C@@H](C(C)C)C(=O)O[C@@H](C)C(=O)N1C`, in series [1], the logD turned out to be 5.5. The results for the Activity with Ovis aries [5] and in the series on Ovis aries [3] were 0.25 and 1, respectively.
`CCC(C)[C@H]1C(=O)O[C@H](Cc2ccccc2)C(=O)N(C)[C@@H](C(C)CC)C(=O)O[C@H](C)C(=O)N(C)[C@@H](C(C)CC)C(=O)O[C@H](Cc2ccccc2)C(=O)N(C)[C@@H](C(C)CC)C(=O)O[C@@H](C)C(=O)N1C` (stereo partly specified) returned a logD in series [1] of 6.6. In addition, the Activity was 1 in the series on Ovis aries [3] and 5 with Ovis aries [4].
Take `CCC[C@H]1C(=O)O[C@H](Cc2ccccc2)C(=O)N(C)[C@@H](CCC)C(=O)O[C@H](C)C(=O)N(C)[C@@H](CCC)C(=O)O[C@H](Cc2ccccc2)C(=O)N(C)[C@@H](CCC)C(=O)O[C@@H](C)C(=O)N1C`: the Activity in the series with Ovis aries [6] stood at 0.5. This compound gave a logD in series [1] of 5.1.
In series [1], `CCCN1C(=O)[C@H](C)OC(=O)[C@H](CC(C)C)N(CCC)C(=O)[C@@H](Cc2ccccc2)OC(=O)[C@H](CC(C)C)N(CCC)C(=O)[C@@H](C)OC(=O)[C@H](CC(C)C)N(CCC)C(=O)[C@@H](Cc2ccccc2)OC(=O)[C@@H]1CC(C)C` had a logD of 8.4. The same compound came in with an Activity in the series on Ovis aries [5] of 0.25.
`CC(C)C[C@H]1C(=O)O[C@H](Cc2ccccc2)C(=O)N(C(C)C)[C@@H](CC(C)C)C(=O)O[C@H](C)C(=O)N(C(C)C)[C@@H](CC(C)C)C(=O)O[C@H](Cc2ccccc2)C(=O)N(C(C)C)[C@@H](CC(C)C)C(=O)O[C@@H](C)C(=O)N1C(C)C` registered a logD in series [1] of 8.6. Further, the Activity with Ovis aries [7] stood at 1.
For `CC(C)C[C@H]1C(=O)O[C@H](Cc2ccccc2)C(=O)N(C)[C@@H](C)C(=O)O[C@@H](C)C(=O)N(C)[C@@H](C)C(=O)O[C@H](Cc2ccccc2)C(=O)N(C)[C@@H](CC(C)C)C(=O)O[C@H](C)C(=O)N1C`, in the series on Ovis aries [6], the Activity is listed as 0.5. Besides, the log distribution coefficient (logD) in series [1] was found to be 4.6.
Consider `CCN1C(=O)[C@H](C)OC(=O)[C@H](CC(C)C)N(CC)C(=O)[C@@H](Cc2ccccc2)OC(=O)[C@H](CC(C)C)N(CC)C(=O)[C@@H](C)OC(=O)[C@H](CC(C)C)N(CC)C(=O)[C@@H](Cc2ccccc2)OC(=O)[C@@H]1CC(C)C`, for which, in series [1], the logD amounted to 7.2. The same compound returned an Activity in the series on Ovis aries [8] of 0.25.
`C[C@@H]1OC(=O)[C@H](C)N(C)C(=O)[C@@H](Cc2ccccc2)OC(=O)[C@H](C)N(C)C(=O)[C@@H](C)OC(=O)[C@H](C)N(C)C(=O)[C@@H](Cc2ccccc2)OC(=O)[C@H](C)N(C)C1=O` had an Activity with Ovis aries [6] of 0.5. In addition, the logD in series [1] was 3.1.
On to `C[C@@H]1OC(=O)[C@H](Cc2ccccc2)N(C)C(=O)[C@@H](Cc2ccccc2)OC(=O)[C@H](Cc2ccccc2)N(C)C(=O)[C@@H](C)OC(=O)[C@H](Cc2ccccc2)N(C)C(=O)[C@@H](Cc2ccccc2)OC(=O)[C@H](Cc2ccccc2)N(C)C1=O`, for which the Activity in the series on Ovis aries [6] is given as 5. In series [1], this compound displayed a logD of 5.9.
